# Reference: patent US8198291B2, “Intranasal opioid compositions” (University of Kentucky Research Foundation, priority 2000, dated 2012)
# Tests used:
# [1] = Pharmacokinetics of butorphanol formulation without benzethonium chloride, Pfeiffer Unitdose Second Generation device; assay type: in vivo, human; settings: single 2 mg intranasal dose, unit-dose device
# Excerpt: This formulation had the following spray pattern function when sprayed from the Pfeiffer Unitdose Second Generation device onto an impaction plate from at various distances.
# The formulation had the following function and properties when administered to human subjects via the Pfeiffer Unitdose Second Generation spray device.
# [2] = Bioavailability/bioequivalence of intranasal butorphanol formulation, unit-dose vs multi-dose spray device; assay type: in vivo, human
# Description: This example compares bioavailability of a butorphanol formulation when administered using a unit-dose or multi-dose delivery device. The formulation contains 10 mg butorphanol tartrate, 6.5 mg sodium chloride, 1.0 mg citric acid, 0.20 mg benzethonium chloride in purified water with 1.2 mg sodium hydroxide and hydrochloric acid added to adjust the pH to 5.0. The multi-dose sprayer purports by its label to administer 0.1 ml of liquid composition by metering upon activation by the user. The formulation had the following function and properties when administered to human subjects via the Pfeiffer Unitdose Second Generation spray device.
# The second delivery system employed to administer the butorphanol compositions was a unit-dose disposable intranasal applicator that is commercially available from Pfeiffer of America under the designation “Unitdose Second Generation.” Each of the Pfeiffer spray applicators was charged with sufficient liquid to deliver a 0.1 mL dose of the butorphanol test formulation. The glass containers were filled using a pipette under clean conditions, sealed and assembled to the applicator. Each of the applicators was weighed prior to use and after use. Qualified medical personnel administered, one dose into each nostril, after which the applicator was recovered for weighing. In the case of the unit-dose applicators (test formulation), two devices were used for each patient, both of which were discarded following the post-use weighing. The results of these studies of the method and system of the invention and the comparative prior art method follow.
# This example assesses the bioequivalence of a butorphanol formulation administered from the unit-dose or multi-dose sprayers described above. The test formulation comprises 1 ml of STADOL NS containing 10 mg butorphanol tartrate, 6.5 mg sodium chloride, 1.0 mg citric acid, 0.20 mg benzethonium chloride in purified water with 1.2 mg sodium hydroxide and hydrochloric acid added to adjust the pH to 5.0. The multi-dose sprayer accompanying STADOL NS purports, by its label, to administer 0.1 ml of liquid. The unit-dose delivery device delivers 0.1 ml of liquid.
# The second analysis was to determine whether the intrasubject variabilities of the two spray devices are equal. The study was initiated with 16 subjects, 15 of which completed the study to provide data for this analysis; one subject dropped out after the second period. The following analysis considers both raw and normalized data, with the latter standardized with respect to the dose dispensed.
# For both the raw and normalized data, log transformations are applied to the pharmacokinetic endpoints Cmax, AUC ([…]), and AUC(inf.). A mixed effects model was considered for each parameter. Fixed effects for the factors sequence (4 levels), period 3 levels) and formulation (2 levels) were included in the model. Additionally, gender, as well as the interactions between gender and each of sequence, period and formulation was included as a factor in each model to determine whether separate analyses would be necessary for males and females. A total of seven models were considered: Tmax, log of raw Cmax values, log of normalized Cmax values, log transformed values for raw and normalized AUC(last), and log values for raw and normalized AUC(inf.). […] In addition, the lack of significance of the effects included in each model indicate that there was no evidence of unequal carryover between the delivery system of the prior art and that in one embodiment of the present invention.
# The mean levels of butorphanol from analysis of the subject's blood plasma reported in pg/ml are plotted against time in FIGS. 1 and 2. The concentration of drug for the unit-dose was unexpectedly higher than that of the multi-dose system. The testing for bioequivalence was done using the method of two one-sided t-test (as described by Bolton, S., Pharmaceutical Statistics. Marcel Dekker, Inc., New York, 1997, pages 415 ff.). […]
# [3] = 2 mg intranasal dose, Pfeiffer Unitdose Second Generation spray device, formulation with benzethonium chloride
# [4] = 90% CI, line between normCmax and normAUCinf, exponentiated, unit-dose vs multi-dose
# [5] = 90% CI, normalized to dispensed dose, exponentiated, unit-dose vs multi-dose
# [6] = 90% CI, raw data, exponentiated, unit-dose vs multi-dose
# [7] = 90% confidence interval, unit-dose (test) vs multi-dose (reference)
# [8] = intranasal, multi-dose spray pump
structure (smiles),measurement,setting,value
O=C(O)C(O)C(O)C(=O)O.Oc1ccc2c(c1)[C@@]13CCCC[C@@]1(O)[C@@H](C2)N(CC1CCC1)CC3 [butorphanol tartrate],Tmax,[1],about 0.25 hr
same,AUC(0-t),[2]; [3],about 10661 pg*hr/ml
same,Cmax,[2]; [3],about 5230 pg/ml
same,Tmax,[2]; [3],about 0.234 hr
same,"log(AUClast) (second line of the table), Lower Conf Limit for Ratio of Test/Reference",[2]; [4],0.921
same,"log(AUClast) (second line of the table), Upper Conf Limit for Ratio of Test/Reference",[2]; [4],1.290
same,"log(normAUCinf), Lower Conf Limit for Ratio of Test/Reference",[2]; [5],0.937
same,"log(normAUCinf), Upper Conf Limit for Ratio of Test/Reference",[2]; [5],1.220
same,"log(normCmax), Lower Conf Limit for Ratio of Test/Reference",[2]; [5],0.897
same,"log(normCmax), Upper Conf Limit for Ratio of Test/Reference",[2]; [5],1.589
same,"log (AUClast), Lower Conf Limit for Ratio of Test/Reference",[2]; [6],1.037
same,"log (AUClast), Upper Conf Limit for Ratio of Test/Reference",[2]; [6],1.540
same,"log (Cmax), Lower Conf Limit for Ratio of Test/Reference",[2]; [6],1.031
same,"log (Cmax), Upper Conf Limit for Ratio of Test/Reference",[2]; [6],1.855
same,"log(AUCinf), Lower Conf Limit for Ratio of Test/Reference",[2]; [6],1.050
same,"log(AUCinf), Upper Conf Limit for Ratio of Test/Reference",[2]; [6],1.461
same,"Tmax, Lower Conf Limit for Ratio of Test/Reference",[2]; [7],0.749
same,"Tmax, Upper Conf Limit for Ratio of Test/Reference",[2]; [7],1.132
same,AUC(0-t),[2]; [8],9.329 ng·h/mL
same,Cmax,[2]; [8],4.072 ng/mL
same,Tmax,[2]; [8],14.7 min
same,area under the curve from multi-dose device as percent of that of the test (unit-dose),[2]; multi-dose vs unit-dose device,90%
same,higher area under the curve of test device compared to reference device,[2]; unit-dose vs multi-dose device,10%
same,higher serum levels of test device compared to reference device,[2]; unit-dose vs multi-dose device,10%
